From patent EP1289507B1, “USE OF AN ALDOSTERONE ANTAGONIST FOR THE TREATMENT OR PROPHYLAXIS OF ALDOSTERONE-MEDIATED PATHOGENIC EFFECTS” (priority 2000, dated 2001)
Several values for one entry are separate records, joined by “and”; a condition that tells them apart may be missing. Equal values may be shown once. Entries after “also recorded” stand apart in the source; their conditions may differ.

What was measured:
saline-drinking SHRSP = experiment: Stroke and cerebrovascular damage in saline-drinking SHRSP; type: in vivo, rats; details: 100 mg/kg/day
Text: Fifteen male, 9 weeks of age, saline-drinking SHRSP were included in the experiment.

[1] = system: aldosterone/salt uninephrectomized rats; experiment: Myocardial injury in aldosterone/salt uninephrectomized rats; type: in vivo, Sprague Dawley rats; details: eplerenone 100 mg/k/d in chow; aldosterone 0.75ug/hr, 1% NaCl
Method: Sprague Dawley rats (250 g) were uninephrectomized and provided with 1% NaCl-solution as the only source of water. The rats were then implanted with Alzet mini pump that subcutaneously delivered either aldosterone (0.75ug/hr) or vehicle. […] Blood pressure was measured by radio telemetry units implanted in abdominal aorta. Rats were sacrificed for examination of the hearts.

[2] = system: Stroke Prone Spontaneously Hypertensive Rat (SHR-SP); experiment: Blood pressure in stroke prone spontaneously hypertensive rat (SHR-SP), tail cuff plethysmography; type: in vivo
Method: Methods: SHR-SP were bred in the animal facilities of New York Medical College and maintained on normal rat chow and non-saline drinking water (i.e., tap water). […] Indirect measurements of systolic blood pressure were assessed by tail cuff plethysmography.

[3] = Pharmacokinetics and absorption after IV and oral [14C]eplerenone in the rat; type: in vivo; details: for half-life / clearance: iv, IV 15 mg/kg; for half-life / clearance / Cmax / bioavailability: 15 mg/kg; for Cmax / bioavailability: po; for Cmax: Cmax of total eplerenone
Method: Plasma, urine and fecal samples were analyzed for total radioactivity.

[4] = Form H content of dried solids by X-ray powder diffraction (XPRD); type: physicochemical
[5] = system: L-NAME/ANG-II-induced renal injury in rats; details: cited from earlier work
[6] = system: patients with hypertension; experiment: Clinical efficacy in hypertension: randomized double-blind study, cuff and ambulatory blood pressure; type: in vivo
Method: A multicenter, randomized, double-blind, parallel group study was conducted in patients with hypertension. […] The study consisted of a two-week pretreatment period for completion of screening procedures and discontinuation of any current antihypertensive medication(s). The screening period was followed by a four-week single-blind placebo lead-in treatment period.
The primary efficacy measure was the change from baseline in cuff diastolic blood pressure measured at trough as compared to placebo. Secondary efficacy measures included changes in cuff assessed trough systolic blood pressure and changes in average 24-hour diastolic and systolic blood pressure assessed by ambulatory blood pressure monitoring. Safety was assessed by conducting routine clinical lab tests, physical exams, ECGs, and monitoring for adverse events.

Question: What does the source list for `COC(=O)[C@@H]1CC2=CC(=O)CC[C@]2(C)[C@@]23O[C@@H]2C[C@@]2(C)[C@@H](CC[C@@]24CCC(=O)O4)[C@H]13` [Eplerenone, Pregn-4-ene-7,21-dicarboxylic acid, 9,11-epoxy-17-hydroxy-3-oxo-, γ-lactone, methyl ester, (7α, 11α, 17β)-]?
Answer: proteinuria (saline-drinking SHRSP): 38 ± 18 mg/day; severe hypertension (SBP) (saline-drinking SHRSP; Figure A-12): 237 ± 3 mmHg; signs of stroke (saline-drinking SHRSP; n=7): no signs of stroke up to 18.5 weeks of age; histopathologic myocardial damage [1]: prevents the histopathologic damage; also recorded: prevents the aldosterone plus high sodium myocardial damage; systolic blood pressure ([2]; Week 13 (initiation), 100 mg/kg/day p.o. BID): 201.4 ± 1.6 mmHg; systolic blood pressure ([2]; Week 14, 100 mg/kg/day p.o. BID): 202.8 ± 1.8 mmHg; systolic blood pressure ([2]; Week 15, 100 mg/kg/day p.o. BID): 208.0 ± 4.2 mmHg; systolic blood pressure ([2]; Week 16, 100 mg/kg/day p.o. BID): 203.1 ± 6.2 mmHg; systemic availability of total radioactivity ([3]; oral 15 mg/kg, female rat): 66.4%; mean Cmax of total radioactivity ([3]; oral 15 mg/kg, female rats): 7.67 µg equivalents/mL; systemic availability of total radioactivity ([3]; oral 15 mg/kg, male rat): 59.6%; mean Cmax of total radioactivity ([3]; oral 15 mg/kg, male rats): 7.64 µg equivalents/mL; half-life ([3]; rat, plasma, elimination half-life of eplerenone, female rat): 1.14 h; half-life ([3]; rat, plasma, elimination half-life of total eplerenone, female rat, closed plus open form): 1.14 h; half-life ([3]; rat, plasma, elimination half-life of total eplerenone, male rat, lactone ring closed form plus open form): 1.01 h; clearance ([3]; rat, plasma, plasma clearance (CL) of eplerenone, female rat): 20 mL/min/kg; clearance ([3]; rat, plasma, plasma clearance (CL) of total eplerenone, female rat): 11.6 mL/min/kg; clearance ([3]; rat, plasma, plasma clearance (CL) of total eplerenone, male rat): 16.4 mL/min/kg; Cmax ([3]; rat, plasma, oral 15 mg/kg, female rat): 6350 ng/mL; Cmax ([3]; rat, plasma, oral 15 mg/kg, male rat): 3200 ng/mL; bioavailability ([3]; rat, plasma, systemic availability of eplerenone, oral 15 mg/kg, female rat): 66.1%; bioavailability ([3]; rat, plasma, systemic availability of eplerenone, oral 15 mg/kg, male rat): 25.6%; bioavailability ([3]; rat, plasma, systemic availability of total eplerenone, oral 15 mg/kg, female rat): 74.2%; bioavailability ([3]; rat, plasma, systemic availability of total eplerenone, oral 15 mg/kg, male rat): 29.4%; Tmax ([3]; rat, plasma, oral 15 mg/kg, male rats): 0.5 h; Weight Percent Form H (XPRD) ([4]; cooling rate (0) 1.5°C/min, cooling endpoint (0) 25°C, impurity level (0) 100.8% purity starting material (footnote as printed), replicate runs): <3% Weight Percent and 5 Weight Percent; Weight Percent Form H (XPRD) ([4]; cooling rate (+) 3°C/min, cooling endpoint (-) 5°C, impurity level (+) 89.3% purity starting material): 9 Weight Percent; L-NAME/ANG-II-induced renal injury [5]: prevents L-NAME/ANG-II-induced renal injury; ABPM DBP, adjusted mean change from baseline to final visit ([6]; 50 mg/day (25 BID)): -4.1 mm Hg; ABPM SBP, adjusted mean change from baseline to final visit ([6]; 50 mg/day (25 BID)): -7.5 mm Hg; Cuff SBP, adjusted mean change from baseline to final visit ([6]; 50 mg/day (25 BID)): -8.1 mm Hg; Cuff DBP, adjusted mean change from baseline to final visit ([6]; 50 mg/day (25 BID), eight weeks): -4.4 mm Hg; ABPM DBP, adjusted mean change from baseline to final visit ([6]; 50 mg/day (50 QD)): -5.1 mm Hg; ABPM SBP, adjusted mean change from baseline to final visit ([6]; 50 mg/day (50 QD)): -6.2 mm Hg; Cuff DBP, adjusted mean change from baseline to final visit ([6]; 50 mg/day (50 QD)): -4.5 mm Hg; Cuff SBP, adjusted mean change from baseline to final visit ([6]; 50 mg/day (50 QD)): -4.4 mm Hg; ABPM DBP, adjusted mean change from baseline to final visit ([6]; 100 mg/day (50 BID)): -6.6 mm Hg; ABPM SBP, adjusted mean change from baseline to final visit ([6]; 100 mg/day (50 BID)): -11.6 mm Hg; Cuff DBP, adjusted mean change from baseline to final visit ([6]; 100 mg/day (50 BID)): -7.8 mm Hg; Cuff SBP, adjusted mean change from baseline to final visit ([6]; 100 mg/day (50 BID)): -11.7 mm Hg; ABPM DBP, adjusted mean change from baseline to final visit ([6]; 100 mg/day (100 QD)): -5.6 mm Hg; ABPM SBP, adjusted mean change from baseline to final visit ([6]; 100 mg/day (100 QD)): -9.6 mm Hg; Cuff DBP, adjusted mean change from baseline to final visit ([6]; 100 mg/day (100 QD)): -4.4 mm Hg; Cuff SBP, adjusted mean change from baseline to final visit ([6]; 100 mg/day (100 QD)): -7.9 mm Hg; ABPM DBP, adjusted mean change from baseline to final visit ([6]; 400 mg/day (200 BID)): -9.0 mm Hg; ABPM SBP, adjusted mean change from baseline to final visit ([6]; 400 mg/day (200 BID)): -16.1 mm Hg; Cuff DBP, adjusted mean change from baseline to final visit ([6]; 400 mg/day (200 BID)): -8.9 mm Hg; Cuff SBP, adjusted mean change from baseline to final visit ([6]; 400 mg/day (200 BID)): -14.8 mm Hg; ABPM DBP, adjusted mean change from baseline to final visit ([6]; 400 mg/day (400 QD)): -7.7 mm Hg; ABPM SBP, adjusted mean change from baseline to final visit ([6]; 400 mg/day (400 QD)): -13.7 mm Hg; Cuff DBP, adjusted mean change from baseline to final visit ([6]; 400 mg/day (400 QD)): -8.7 mm Hg; Cuff SBP, adjusted mean change from baseline to final visit ([6]; 400 mg/day (400 QD)): -15.0 mm Hg; Peak to trough ratios ([6]; QD and BID regimens, all doses): 1.04 - 1.10; gynecomastia ([6]; eight-week double-blind treatment): no reports of gynecomastia; tolerability ([6]; incidence of adverse events similar to placebo): well tolerated
